pIC50: −log10 of the molar value. Numbered stars: 1 amine (or outer) side, 2 acyl side, 3 side chain; on linkers, the order of the positions; unused ones are H or OH. Square brackets hold non-standard residues; d marks the D form. Peptide text beside a SMILES is read from it. N(2-(2-PhOPh)Et)Gly = O=C(O)CNCCc1ccccc1Oc1ccccc1; Gly(N-3,5-(OMe)2-Ph) = COc1cc(NCC(=O)O)cc(OC)c1; X1 = COc1ccc([C@H](C)N(CC(=O)[*:2])[*:1])cc1; N((CH2)3OiPr)Gly = CC(C)OCCCNCC(=O)O
Experiments:
[1] = test system: Wnt signaling in zebrafish embryos; assay: Zebrafish phenotypic assay of Wnt signaling (eye development); assay type: in vivo
Source text: Rescue of eye development in Wnt-activated zebrafish embryos by the hit oligomer macrocycle—To evaluate the efficacy of 13 in vivo, a zebrafish model was utilized. The relevance of the model for our studies is that zebrafish embryos with Wnt activating mutations in the AXIN gene, a component of the β-catenin destruction complex, fail to develop eyes or a forebrain. The phenotype can be recapitulated by treatment with an inhibitor (termed BIO) for another β-catenin destruction complex member, GSK3, in embryos at 6 hours post-fertilization (hpf). It would then be anticipated that 13 inhibits the chemically over-activated Wnt signal, and potentially rescue eye development. To test this compound BIO was added to zebrafish embryos at 6 hpf with and without 13 as described in FIG. 10A.
Zebrafish Experiments The zebrafish phenotypic assay was conducted using wildtype zebrafish embryos seeded into a 96 well round bottom plate in 50 μl of blue zebrafish embryo media. At 50% epiboly, roughly 5.5 hours post fertilization, 50 ul of 30 μM cyclic peptoid compound was added. About 30 minutes later at shield stage, 50 μl 6 nM (3×) BIO was added. The embryos were then visualized for the presence of eyes and imaged at 30 hours post fertilization.

[2] = molecular target: T1, E-cadherin:β-catenin interaction (Homo sapiens, UniProt P35222); assay: Two-hybrid like assay, E-cadherin with β-catenin; assay type: cell-based
T1 sequence (P35222 1-781): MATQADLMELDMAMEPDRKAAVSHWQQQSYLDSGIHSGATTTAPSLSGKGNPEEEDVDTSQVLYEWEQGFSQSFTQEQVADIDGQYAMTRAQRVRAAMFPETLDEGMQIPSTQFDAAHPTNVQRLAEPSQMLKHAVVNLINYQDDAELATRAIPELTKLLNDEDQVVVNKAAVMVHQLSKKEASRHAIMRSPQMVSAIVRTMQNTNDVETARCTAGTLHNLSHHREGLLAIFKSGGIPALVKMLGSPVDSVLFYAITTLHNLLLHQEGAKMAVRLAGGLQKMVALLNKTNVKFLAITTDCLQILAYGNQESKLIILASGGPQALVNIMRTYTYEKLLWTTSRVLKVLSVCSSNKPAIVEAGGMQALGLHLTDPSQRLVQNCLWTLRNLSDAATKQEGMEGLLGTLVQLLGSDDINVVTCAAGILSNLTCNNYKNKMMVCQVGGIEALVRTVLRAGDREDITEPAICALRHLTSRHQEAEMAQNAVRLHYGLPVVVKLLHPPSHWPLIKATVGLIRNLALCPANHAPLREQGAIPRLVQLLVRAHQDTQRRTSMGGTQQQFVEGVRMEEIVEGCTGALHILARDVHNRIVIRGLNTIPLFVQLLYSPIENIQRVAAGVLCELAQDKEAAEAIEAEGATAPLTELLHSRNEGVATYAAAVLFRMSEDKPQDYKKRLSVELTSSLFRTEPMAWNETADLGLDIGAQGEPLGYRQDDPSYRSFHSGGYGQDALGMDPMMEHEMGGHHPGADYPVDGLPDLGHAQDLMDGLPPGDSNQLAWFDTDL

[3] = molecular target: T2, β-catenin:TCF4 protein interaction (Homo sapiens, UniProt P35222); assay: Co-immunoprecipitation of myc-TCF4 and endogenous β-catenin in HEK293 cells; assay type: cell-based; settings: 10 μM, 48 hour treatment
T2 construct: endogenous in cells; host or cells: HEK293 (β-catenin endogenous; myc-TCF4 transfected from addgene #32738)
T2 sequence (P35222 2-781 limits assumed): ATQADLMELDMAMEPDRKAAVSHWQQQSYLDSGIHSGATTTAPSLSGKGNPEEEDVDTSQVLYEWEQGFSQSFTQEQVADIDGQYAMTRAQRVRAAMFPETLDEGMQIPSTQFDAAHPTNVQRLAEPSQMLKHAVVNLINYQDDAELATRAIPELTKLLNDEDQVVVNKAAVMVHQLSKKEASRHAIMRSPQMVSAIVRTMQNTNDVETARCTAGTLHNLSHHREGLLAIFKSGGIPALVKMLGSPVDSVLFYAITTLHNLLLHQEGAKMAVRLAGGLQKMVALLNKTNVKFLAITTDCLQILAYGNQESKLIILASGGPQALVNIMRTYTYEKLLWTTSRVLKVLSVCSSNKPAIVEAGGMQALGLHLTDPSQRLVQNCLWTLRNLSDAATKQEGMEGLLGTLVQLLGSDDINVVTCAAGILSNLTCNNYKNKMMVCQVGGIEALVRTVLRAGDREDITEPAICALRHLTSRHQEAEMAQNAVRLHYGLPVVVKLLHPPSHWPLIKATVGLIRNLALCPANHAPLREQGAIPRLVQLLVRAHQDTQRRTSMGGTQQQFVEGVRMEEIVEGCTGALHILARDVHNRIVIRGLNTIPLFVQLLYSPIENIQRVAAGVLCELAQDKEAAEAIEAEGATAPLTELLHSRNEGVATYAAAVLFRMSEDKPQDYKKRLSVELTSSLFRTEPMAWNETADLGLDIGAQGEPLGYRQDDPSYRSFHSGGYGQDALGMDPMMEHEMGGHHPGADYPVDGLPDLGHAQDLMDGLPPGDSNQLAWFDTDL
Protocol: HEK293 cells were transiently transfected with a plasmid expressing full length, myc-tagged TCF4.
Cell Culture LNCaP-abl and LNCaP-95 cells were cultured in indicator free RPMI 1640 media (Life) supplemented with 10% charcoal stripped FBS, 1% penn/strep, and 1% L-Glutamine. HEK-293 Cells were cultured in DMEM media (Life) supplemented with 10% FBS and 1% penn/strep. Luciferase assays were conducted using stably transfected TOP-flash and 3×ARE LNCaP-abl cell lines. For the Wnt pathway, TOP-Flash LNCaP-abl cells were treated with siAPC for 24 hours followed by 24 hours treatment with compound. For the AR-pathway, 3×ARE LNCaP-abl cells were treated for 48 hours with compound, with the addition of R1881 for the final 8 hours. Both were measured using the ONE-Glo detection kit (Promega) and reported data is standardized to the cell-titer control values. Co-immunoprecipitation was carried out using HEK293 cells transfected with either myc-TCF (addgene #32738) or myc-TCF dominant negative (addgene #32739) followed by 48 hours of treatment with compound. Cells were lysed using trition lysis buffer and 1 mg total protein was incubated overnight at 4 C with 40 μl anti-cMyc magnetic beads (Thermo). […] After 5 days of treatment the cell viability was measured with the CellTiter-Fluor Cell Viability Assay (Promega) and data is reported standardized to DMSO control.

[4] = molecular target: T3, β-catenin:TCF family interaction (Homo sapiens, UniProt P35222); assay: Two-hybrid like assay of β-catenin:TCF family member interactions; assay type: cell-based
T3 sequence (P35222 1-781): T1 sequence (P35222 1-781)

AR signaling = assay: 3x-Androgen Response Element (ARE) luciferase reporter assay; assay type: cell-based; settings: for pIC50: 3xARE LNCaP-abl cells, 48 h compound, read-out: IC50 for inhibition of the AR luciferase reporter
Protocol: (§1) Compound testing and identification of a hit compound—Using a TOP-Flash Wnt luciferase reporter, 12 oligomers identified from in silico modeling for inhibitory activity (FIG. 6A) were tested. At […] concentration, all compounds had some level of Wnt inhibitory activity in cell culture, with varying degrees of efficacy. Also employed was a 3×-Androgen Response Element (ARE) luciferase reporter to measure the effect on AR activity. […] FIG. 2B depicts the predicted structure and contacts of the β-catenin: 13 complex.

Wnt signaling pathway = assay: TOP-Flash Wnt luciferase reporter assay; assay type: cell-based; settings: for pIC50: TOP-Flash LNCaP-abl cells, siAPC 24 h then 24 h compound, read-out: IC50 for Wnt luciferase inhibition
Protocol: The macrocycles were evaluated for their ability to inhibit the Wnt signaling pathway in cell culture. The macrocycles were administered at a concentration of 10 micromolar, and the activity was monitored with a luciferase reporter assay responsive to signaling through the Wnt pathway. […] The macrocycles were also observed to exert minimal cellular toxicity at the 10 micromolar concentration. […] Cells were incubated with 5 μM of peptoid macrocycles prior to co-IP.
as §1

LNCaP-abl spheroids = assay: Spheroid 3D cell culture (PrestoBlue viability, spheroid area); assay type: cell-based
Protocol: The effects on spheroid formation and growth were evaluated following treatment with DMSO, 13, or linear 13 administered at the time of seeding at low cell density in a 384 well plate. In a separate experiment, to test the impact on pre-formed spheroids, cells were treated five days after initial seeding. Spheroids from both experiments were grown for 22 days, with compound refreshed on days 5, 9, 13, 16, and 20. […] PrestoBlue was used to measure cell viability on day 22 (FIG. 9B). […] FIG. 9C-F depicts spheroid area over time based on size measurements from the images taken throughout the experiment.
Spheroid 3D Cell Culture LNCaP-abl cells were seeded into 384 well ultra-low attachment plates (Corning), 1000 cells/well. Varying concentrations of compound were added either on the same day as seeding or on day 5. Media was changed every 3-4 days using a Biotek automated media exchanger. Images were taken using an ArraySca VTI (Thermo) on days 5, 9, 13, 16, 20, and 22. A final viability measurement was taken on day 22 using PrestoBlue reagent (Thermo).

[5] = molecular target: β-catenin:TCF4 interaction (Homo sapiens, UniProt P35222); settings: read-out: IC50 for inhibition of β-catenin binding to TCF4 N-terminal β-catenin binding domain; 5 nM His6-β-catenin
[6] = test system: LNCaP-abl and LNCaP-95 cells; assay: RT-qPCR of endogenous Wnt and AR target genes; assay type: cell-based; settings: 10 μM, 24 hours
Protocol: These cell lines were derived from androgen-sensitive LNCaP cells, and passaged in androgen-deprived media to mimic the development of castration resistance in patient tumors. mRNA from LNCaP-abl and LNCaP-95 cells treated with DMSO (vehicle) was isolated, 10 μM 13 and linear 13 for 24 hours to check the expression of endogenous Wnt and AR target genes (FIG. 8A). […] AR-V7 is particularly challenging to target as most AR antagonists target the ligand binding domain.
Cell Culture LNCaP-abl and LNCaP-95 cells were cultured in indicator free RPMI 1640 media (Life) supplemented with 10% charcoal stripped FBS, 1% penn/strep, and 1% L-Glutamine. HEK-293 Cells were cultured in DMEM media (Life) supplemented with 10% FBS and 1% penn/strep. Luciferase assays were conducted using stably transfected TOP-flash and 3×ARE LNCaP-abl cell lines. For the Wnt pathway, TOP-Flash LNCaP-abl cells were treated with siAPC for 24 hours followed by 24 hours treatment with compound. For the AR-pathway, 3×ARE LNCaP-abl cells were treated for 48 hours with compound, with the addition of R1881 for the final 8 hours. Both were measured using the ONE-Glo detection kit (Promega) and reported data is standardized to the cell-titer control values. Co-immunoprecipitation was carried out using HEK293 cells transfected with either myc-TCF (addgene #32738) or myc-TCF dominant negative (addgene #32739) followed by 48 hours of treatment with compound. Cells were lysed using trition lysis buffer and 1 mg total protein was incubated overnight at 4 C with 40 μl anti-cMyc magnetic beads (Thermo). The beads were washed 3× with lysis buffer then boiled in 2× sample loading dye. SDS-PAGE and western blotting were performed using anti-myc (CST 2276) and anti-β-catenin (CST 8480). RT-qPCR was performed using RNA isolated with the RNEasy kit (Qiagen) from LNCaP-abl and LNCaP-95 cells after 24 hour treatment with 10 μM compound. The Verso cDNA synthesis kit (Thermo) with 1 μg total RNA was used, and qPCR data was collected using Fast SYBR Green Master Mix on a QuantiStudio 6 Flex (Life Technologies). 2D proliferation assays were conducted using 384 well plates seeded with 2000 cells/well LNCaP-abl or LNCaP-95 cells. After 5 days of treatment the cell viability was measured with the CellTiter-Fluor Cell Viability Assay (Promega) and data is reported standardized to DMSO control.

[7] = 3 additional independent experiments, each
[8] = first experiment, eight fish, BIO added at 6 hpf with or without 13

With `O=C1Nc2cc(Br)ccc2/C1=C1/Nc2ccccc2/C1=N\O` [BIO, reference compound] the “Fish that developed eyes” value [1, 7] was 0/8 and the “Fish that developed eyes” value [1, 8] was “one of the eight fish”.

For `COc1ccc([C@H](C)N2CC(=O)N[C@H](C)C(=O)N(CCc3ccccc3Oc3ccccc3)CC(=O)N(c3cc(OC)cc(OC)c3)CC(=O)N(CCCOC(C)C)CC(=O)N([C@@H](C)c3ccc(OC)cc3)CC2=O)cc1` [Compound 13] (cyclo([dA][N(2-(2-PhOPh)Et)Gly][Gly(N-3,5-(OMe)2-Ph)][N((CH2)3OiPr)Gly][X1][X1])), the “Inhibition of E-cadherin interaction with β-catenin” value [2] was “not”, the “β-catenin:TCF interaction by co-immunoprecipitation, compared to DMSO” value [3] was “decreased” and the “Inhibition of TCF family interaction with β-catenin” value [4] was “inhibits”. The “Inhibition of AR signaling, 3x-ARE luciferase reporter” value (AR signaling) was “more effective”, the pIC50 (AR signaling) was 5.99 and the “Wnt inhibitory activity, TOP-Flash Wnt luciferase reporter” value (Wnt signaling pathway; 10 µM concentration, cell culture) was “more effective”. For the same molecule, the pIC50 (Wnt signaling pathway) was 6.98, the “Spheroid growth / area over time” value (LNCaP-abl spheroids; 0.5 μM, added on day 0) was “slowed the growth” and the “Spheroid formation / area over time” value (LNCaP-abl spheroids; 20 μM, 10 μM, 5 μM, 2 μM and 1 μM, added on day 0 with seeding) was “prevented spheroid formation”. For the same molecule, the “Growth of preformed spheroids / area over time” value (LNCaP-abl spheroids; at or above 2 μM, treatment started at day 5) was “stalled the growth of preformed spheroids”, the “Spheroid growth / area over time” value (LNCaP-abl spheroids; between 0.001 µM and 0.1 μM) was “little effect” and the pIC50 [5] was 5.26. The “Fish that developed eyes” value [1, 7] was 8/8, the “Fish that developed eyes” value [1, 8] was “all the fish” and the “AR mRNA” value [6] was “decreased”. For the same molecule, the “Cyclin D1 mRNA” value [6] was “decreased”, the “FKBP5 mRNA” value [6] was “decreased” and the “PSA mRNA” value [6] was “decreased”. The “Transcription of AR splice variant AR-V7” value [6] was “decreased”, the “Transcription of E-cadherin” value [6] was “increased” and the “cMYC mRNA” value [6] was “decreased”.

Molecule “NH2-D-Ala-N-mpp, N-dmp, N-ipp, N-Smpe, N-Smpe-OH [linear 13]” has a pIC50 (AR signaling) of 5.12 and a pIC50 (Wnt signaling pathway) of 5.49.
